Holding throughout (assay type): physicochemical
The nature of series [1]: Critical micelle concentration (CMC) from surface tension versus concentration, Wilhelmy plate method. The conditions noted are these: for surface tension at the CMC: from plot of surface tension versus concentration; for surface tension at the CMC / minimum surface tension that can be reached (plateau / asymptotic value): pH=7; for minimum surface tension that can be reached (plateau / asymptotic value) / critical micelle concentration (CMC): in water. An excerpt: As surfactant concentration increases, surface tension decreases. Once the surface is completely overlaid with surfactant molecules, micelles begin to form. This point represents the CMC, as well as the minimum surface tension. Further addition of surfactant will not further affect the surface tension. CMC may therefore be measured by observing the change in surface tension as a function of surfactant concentration. One such method for measuring this value is the Wilhemy plate method. A Wilhelmy plate is usually a thin iridium-platinum plate attached to a balance by a wire and placed perpendicularly to the air-liquid interface. The balance is used to measure the force exerted on the plate by wetting. This value is then used to calculate the surface tension (γ) according to Equation 1: γ=F/I cos θ Equation 1: wherein I is equal to the wetted perimeter (2w+2d, in which w and d are the […], respectively) and cos θ, the contact angle between the liquid and the plate, is assumed to be 0 in the absence of an extant literature value.
(§1) Nuclear magnetic resonance (NMR) spectroscopy was performed on a Bruker 500 MHz spectrometer. The critical micelle concentration (CMC) was determined by the Wilhelmy plate method at 23° C. with a tensiometer (DCAT 11, DataPhysics Instruments GmbH) equipped with a Pt—Ir plate. Dynamic surface tension was determined with a bubble pressure tensiometer (Krüss BP100, Krüss GmbH), at 23° C. Contact angle was determined with the optical contact angle goniometer (OCA 15 Pro, DataPhysics GmbH) equipped with a digital camera.
The critical micelle concentration (CMC) of the 6-((2-butyloctyl)oxy)-N,N,N-trimethyl-6-oxohexan-1-aminium iodide from Example 1a was tested. […] From the plot of the results, the surface tension at the CMC is equal to or less than about 27 mN/m.
The critical micelle concentration (CMC) of the 6-((2-butyloctyl)oxy)-N,N-dimethyl-6-oxohexan-1-aminium 4-methylbenzenesulfonate from Example 2a was tested. From the change in surface tension with concentration in water, the CMC was determined to be about 0.97 mmol. The plateau value of minimum surface tension that can be reached by this surfactant is about 27 mN/m, namely 27 mN/m±3 mN/m. […] From the plot of the results, the surface tension at the CMC is equal to or less than about 30 mN/m.

A short description of series [2]: Wetting properties: contact angle on solid substrates, optical contact angle goniometer. The conditions noted are these: 10x CMC.
From the text: Surface-active compounds may also be assessed by their wetting ability on solid substrates as measured by the contact angle. When a liquid droplet comes in contact with a solid surface in a third medium, such as air, a three-phase line forms among the liquid, the gas and the solid. The angle between the surface tension unit vector, acting at the three-phase line and tangent at the liquid droplet, and the surface is described as the contact angle. The contact angle (also known as wetting angle) is a measure of the wettability of a solid by a liquid. In the case of complete wetting, the liquid is completely spread over the solid and the contact angle is 0°. Wetting properties are typically measured for a given compound at the concentration of 1-10×CMC, however, it is not a property that is concentration-dependent therefore measurements of wetting properties can be measured at concentrations that are higher or lower.
In one method, an optical contact angle goniometer may be used to measure the contact angle. This device uses a digital camera and software to extract the contact angle by analyze the contour shape of a sessile droplet of liquid on a surface.
as §1
In addition to surface tension and surface dynamics, the wetting properties of the 6-((2-butyloctyl)oxy)-N,N-dimethyl-6-oxohexan-1-aminium 4-methylbenzenesulfonate from Example 2a were tested on various surfaces.

The nature of series [3]: Dynamic surface tension, bubble pressure tensiometer. The conditions noted are these: 23° C. The method, then: One method by which dynamic surface tension is measured relies upon a bubble pressure tensiometer. This device measures the maximum internal pressure of a gas bubble that is formed in a liquid by means of a capillary. The measured value corresponds to the surface tension at a certain surface age, the time from the start of the bubble formation to the occurrence of the pressure maximum. The dependence of surface tension on surface age can be measured by varying the speed at which bubbles are produced.
as §1
The dynamic surface tension of the 6-((2-butyloctyl)oxy)-N,N-dimethyl-6-oxohexan-1-aminium 4-methylbenzenesulfonate from Example 2a was determined with a bubble pressure tensiometer which measures the change of surface tension of a freshly created air-water interface with time. FIG. 2B presents a plot of the surface tension versus time, showing that surface tension in the time interval between 10 and 100 ms drops rapidly from about 46 mN/m to about 30 mN/m. In the time interval from 100 to 8,000 ms, the surface tension drops slowly from 30 mN/m to about 27 mN/m, approaching asymptotically the saturation value of the surface tension at the CMC.

Where [4] appears, read: substrate Polyethylene terephthalate.

Values joined by “and” are separate entries in the source; they are usually repeats but may differ in a detail not shown here. Equal entries are not always repeated.

Results on seven molecules are retold here after patent US11857515B2, “Branched amino acid surfactants for use in healthcare products” (AdvanSix Resins & Chemicals LLC, priority 2020, dated 2024).

By surface tension is commonly meant the force per length acting along the surface. With `CCCCCCC(CCCC)COC(=O)CCCCC[N+](C)(C)C.[I-]` (stereo not shown) [Example 1a, 6-((2-butyloctyl)oxy)-N,N,N-trimethyl-6-oxohexan-1-aminium iodide], the “critical micelle concentration (CMC), not clearly determined up to this concentration” value in series [1] (23° C., pH=7, Wilhelmy plate) is reported as greater than 10 mg/mL. Moreover, in series [1], the “surface tension at the CMC” value is no more than 27 mN/m. For the same molecule, the “minimum surface tension that can be reached (plateau / asymptotic value)” value in series [1] (23° C.) is “about 27 mN/m”.

As to `CCCCCCC(CCCC)COC(=O)CCCCCN(C)C.Cc1ccc(S(=O)(=O)O)cc1` (stereo not shown) [Example 2a, 6-((2-butyloctyl)oxy)-N,N-dimethyl-6-oxohexan-1-aminium 4-methylbenzenesulfonate], the “CA of Surfactant (contact angle)” value was 13.5 ° in series [2] (substrate Nylon), 7.7 ° in series [2] (setting [4]), 24.3 ° in series [2] (substrate Polyethylene-HD) and 48.2 ° in series [2] (substrate Teflon). Further, the “surface tension at the CMC” value in series [1] is on record as no more than 30 mN/m. Besides, the “minimum surface tension that can be reached (plateau / asymptotic value)” value in series [1] (23° C.) is “about 27 mN/m”. In addition, in series [1] (23° C., pH=7, Wilhelmy plate), the “critical micelle concentration (CMC)” value was “about 0.97 mmol”. Also, the figures for the dynamic surface tension result in series [3] (surface age 10 ms), in series [3] (surface age 100 ms) and in series [3] (surface age 8,000 ms) were “about 46 mN/m”, “about 30 mN/m” and “about 27 mN/m”, respectively.

`CCCCCCC(CCCC)COC(=O)CCCCCN(C)C.Cl` (stereo not shown) [Example 3a, 6-((2-butyloctyl)oxy)-N,N-dimethyl-6-oxohexan-1-aminium chloride]: the “minimum surface tension that can be reached (plateau / asymptotic value)” value in series [1] (23° C.) is reported as “about 29 mN/m”.

Turning to `CCCCCCC(CCCC)COC(=O)CCCCC[N+](C)(C)CCCCS(=O)(=O)[O-]` (stereo not shown) [Example 4a, 4-((6-((2-butyloctyl)oxy)-6-oxohexyl)dimethylammonio)butane-1-sulfonate], the “CA of Surfactant (contact angle)” value in series [2] (substrate Nylon) is 28.7 °; in series [2] (setting [4]), 29.8 °; in series [2] (substrate Polyethylene-HD) it was 44.4 °; in series [2] (substrate Teflon), 62.2 °. Besides, the “surface tension at the CMC” value in series [1] is recorded as no more than 32 mN/m. Moreover, in series [1] (23° C.), the “minimum surface tension that can be reached (plateau / asymptotic value)” value is recorded as “about 32 mN/m”. Moreover, the “critical micelle concentration (CMC)” value in series [1] (23° C., pH=7, Wilhelmy plate) is on record as “about 0.54 mmol”. In addition, the dynamic surface tension result in series [3] (surface age 10 ms) was “about 66 mN/m”; in series [3] (surface age 100 ms) it was “about 36 mN/m”; in series [3] (surface age 8,000 ms), “about 32 mN/m”.

Regarding `CCCCCCC(CCCC)COC(=O)CCCCC[N+](C)(C)[O-]` (stereo not shown) [Example 5a, 2-butyloctyl 6-(dimethylamino)hexanoate N-oxide], the “CA of Surfactant (contact angle)” value in series [2] (substrate Nylon) was 38.5 °; in series [2] (setting [4]) it was 9.2 °; in series [2] (substrate Polyethylene-HD), 31.6 ° and 31.9 °; in series [2] (substrate Teflon), 41.5 ° and 41.0 °. Besides, the “surface tension at the CMC” value in series [1] is no more than 28 mN/m. For the same molecule, the “minimum surface tension that can be reached (plateau / asymptotic value)” value in series [1] (23° C.) is given as “about 28 mN/m”. The “critical micelle concentration (CMC)” value in series [1] (23° C., pH=7, Wilhelmy plate) is given as “about 0.29 mmol”. Further, the values for the dynamic surface tension entry in series [3] (surface age 10 ms), in series [3] (surface age 1,000 ms) and in series [3] (surface age 8,000 ms) were “about 60 mN/m”, “about 30 mN/m” and “about 28 mN/m”, respectively.

`CCCCCCC(CCCC)COC(=O)CCCCCN.Cl` (stereo not shown) [Example 6a, 6-((2-butyloctyl)oxy)-6-oxohexan-1-aminium chloride]: the “CA of Surfactant (contact angle)” value is reported as 24.5 ° in series [2] (substrate Nylon), 20.1 ° in series [2] (setting [4]), 25.8 ° in series [2] (substrate Polyethylene-HD) and 48.7 ° in series [2] (substrate Teflon). Further, the “surface tension at the CMC” value in series [1] is recorded as no more than 30 mN/m. Besides, the “minimum surface tension that can be reached (plateau / asymptotic value)” value in series [1] (23° C.) is listed as “about 27 mN/m”. In addition, in series [1] (23° C., pH=7, Wilhelmy plate), the “critical micelle concentration (CMC)” value was “about 0.15 mmol”. Besides, the dynamic surface tension entry in series [3] (surface age 10 ms) is “about 69 mN/m”; in series [3] (surface age 1,000 ms) it was “about 49 mN/m”; in series [3] (surface age 8,000 ms), “about 29 mN/m”.

In the case of `CCCCCCC(CCCC)COC(=O)CCCCCN.Cc1ccc(S(=O)(=O)O)cc1` (stereo not shown) [Example 7a, 6-((2-butyloctyl)oxy)-6-oxohexan-1-aminium 4-methylbenzenesulfonate], the “CA of Surfactant (contact angle)” value in series [2] (substrate Nylon) is 12.6 °; in series [2] (setting [4]) it was 13.2 °; in series [2] (substrate Polyethylene-HD), 14.6 °; in series [2] (substrate Teflon) it was 49.4 °. In addition, the surface tension in series [1] (at a concentration of about 1.0 mmol or greater) was no more than 28.5 mN/m. Besides, the “surface tension at the CMC” value in series [1] is no more than 30 mN/m. The “minimum surface tension that can be reached (plateau / asymptotic value)” value in series [1] (23° C.) is “about 27 mN/m”. Further, the “critical micelle concentration (CMC)” value in series [1] (23° C., pH=7, Wilhelmy plate) is reported as “about 2.12 mmol”. Besides, the dynamic surface tension entry in series [3] (surface age 10 ms) is on record as “about 46 mN/m”; in series [3] (surface age 100 ms), “about 30 mN/m”; in series [3] (surface age 8,000 ms), “about 27 mN/m”.
